Results on five compounds are retold here after patent US20160039880A1 (priority 2012, published 2016).

The term Ki denotes a measure of affinity in units of concentration, obtained from inhibition or displacement.

One data set addresses Calcineurin (Homo sapiens, UniProt P62937+P63098+Q08209).
Data set [1] addresses Human recombinant cyclophilin A (Cyp A) (Homo sapiens, UniProt P62937).
Data set [2] in a line: Water Solubility Assay (measured in pH 7.8 buffer).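 Also: precipitation onset detected as rise in absorbance at 650 nm across increasing concentrations, after shaking for 18 h, blank wells receiving DMSO only.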 The class given is physicochemical. The conditions noted are these: pH 7.8.
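For Ki in this document: cis to trans isomerization of SUC-AAPF-pNA by 2 nM enzyme, read as absorbance at 330 nm over 300 s at 10 °C, catalytic rate corrected for uncatalyzed background.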

Sequence of Human recombinant cyclophilin A (Cyp A) (P62937 whole entry): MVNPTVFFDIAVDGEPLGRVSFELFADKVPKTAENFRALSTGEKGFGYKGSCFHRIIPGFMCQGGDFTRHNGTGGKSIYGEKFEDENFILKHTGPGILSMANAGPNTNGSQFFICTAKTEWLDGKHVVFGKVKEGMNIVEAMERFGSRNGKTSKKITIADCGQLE
Sequence of Calcineurin (P63098 whole entry, other chains not shown): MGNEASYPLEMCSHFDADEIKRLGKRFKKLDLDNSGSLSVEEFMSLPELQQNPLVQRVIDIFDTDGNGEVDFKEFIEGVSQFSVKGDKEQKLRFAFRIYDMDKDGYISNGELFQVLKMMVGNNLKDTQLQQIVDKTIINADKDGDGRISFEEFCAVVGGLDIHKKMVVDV
Sequence of Calcineurin (P62937 whole entry, other chains not shown): as the sequence (P62937 whole entry) above

With `CC[C@H]1NC(=O)[C@@H]([C@H](O)[C@H](C)CCN2CC(F)(F)OC(F)(F)C2)N(C)C(=O)[C@@H](C(C)C)N(C)C(=O)[C@@H](CC(C)C)N(C)C(=O)[C@@H](CC(C)C)N(C)C(=O)[C@H](C)NC(=O)[C@@H](C)NC(=O)[C@@H](CC(C)C)N(C)C(=O)[C@@H](C(C)C)NC(=O)[C@H](CC(C)C)N(C)C(=O)[C@@H](C)N(C)C1=O` [Compound EK, [(3R,4R,5S)-4-Hydroxy-3-methyl-5-(methylamino)-1-(2,2,6,6-tetrafluoro-morpholin-4-yl)-hexanoic acid]^1[(R)-methyl-Sar]^3 cyclosporin A], the immunosuppressive potential entry on Calcineurin is on record as “more immunosuppressive potential than others”. The Ki in data set [1] came to 12 nM. Also, in data set [2], the “Water Solubility Assay” value is 25 to 50 µM.
Take `CCC1NC(=O)C(C(O)C(C)CCN(CCC(F)(F)F)CCC(F)(F)F)N(C)C(=O)C(C(C)C)N(C)C(=O)C(CC(C)C)N(C)C(=O)C(CC(C)C)N(C)C(=O)C(C)NC(=O)C(C)NC(=O)C(CC(C)C)N(C)C(=O)C(C(C)C)NC(=O)C(CC(C)C)N(C)C(=O)C(C)N(C)C1=O` [Compound EQ, (3R,4R,5S)-1-[Bis-(3,3,3-trifluoro-propyl)-amino]-[(4-Hydroxy-3-methyl-5-(methylamino)-hexanoic acid]^1[(R)-methyl-Sar]^3 cyclosporin A]: the immunosuppressive potential entry at Calcineurin is reported as “more immunosuppressive potential than others”. Moreover, the Ki in data set [1] came to 4.6 nM. Besides, the “Water Solubility Assay” value in data set [2] lay within 25 to 50 µM.
For `CC[C@H]1NC(=O)[C@@H]([C@H](O)[C@H](C)CCN2CC(F)(F)C(F)(F)C2)N(C)C(=O)[C@@H](C(C)C)N(C)C(=O)[C@@H](CC(C)C)N(C)C(=O)[C@@H](CC(C)C)N(C)C(=O)[C@H](C)NC(=O)[C@@H](C)NC(=O)[C@@H](CC(C)C)N(C)C(=O)[C@@H](C(C)C)NC(=O)[C@H](CC(C)C)N(C)C(=O)[C@@H](C)N(C)C1=O` [Compound ER, [(3R,4R,5S)-4-Hydroxy-3-methyl-5-(methylamino)-1-(3,3,4,4-tetrafluoro-pyrrolidin-1-yl)-hexanoic acid]^1[(R)-methyl-Sar]^3 cyclosporin A], in that order: “more immunosuppressive potential than others”, 6.7 nM and 25 to 50 µM.
`CC[C@H]1NC(=O)[C@@H]([C@H](O)[C@H](C)CCN2CCC(F)(F)CC2)N(C)C(=O)[C@@H](C(C)C)N(C)C(=O)[C@@H](CC(C)C)N(C)C(=O)[C@@H](CC(C)C)N(C)C(=O)[C@H](C)NC(=O)[C@@H](C)NC(=O)[C@@H](CC(C)C)N(C)C(=O)[C@@H](C(C)C)NC(=O)[C@H](CC(C)C)N(C)C(=O)[C@@H](C)N(C)C1=O` [Compound EN, [(3R,4R,5S)-(4,4-Difluoro-piperidin-1-yl)-4-hydroxy-3-methyl-5-(methylamino)-1-hexanoic acid]^1[(R)-methyl-Sar]^3 cyclosporin A]: the immunosuppressive potential entry at Calcineurin is reported as “more immunosuppressive potential than others”. In data set [1], the Ki came out at 6.7 nM. For the same compound, the “Water Solubility Assay” value in data set [2] lay within 25 to 50 µM.
As for `CC[C@H]1NC(=O)[C@@H]([C@H](O)[C@H](C)CCN2CCC(F)(F)C2)N(C)C(=O)[C@@H](C(C)C)N(C)C(=O)[C@@H](CC(C)C)N(C)C(=O)[C@@H](CC(C)C)N(C)C(=O)[C@H](C)NC(=O)[C@@H](C)NC(=O)[C@@H](CC(C)C)N(C)C(=O)[C@@H](C(C)C)NC(=O)[C@H](CC(C)C)N(C)C(=O)[C@@H](C)N(C)C1=O` [Compound EL, [(3R,4R,5S)-(3,3-Difluoro-pyrrolidin-1-yl)-4-Hydroxy-3-methyl-5-(methylamino)-1-hexanoic acid]^1[(R)-methyl-Sar]^3 cyclosporin A], the immunosuppressive potential entry on Calcineurin is listed as “more immunosuppressive potential than others”. The Ki in data set [1] is 10 nM. Further, the “Water Solubility Assay” value in data set [2] was in the range of 75 to 100 µM.
